The assay concerns the target T1, Androgen receptor (Homo sapiens, UniProt P10275).
T1 sequence (P10275 whole entry): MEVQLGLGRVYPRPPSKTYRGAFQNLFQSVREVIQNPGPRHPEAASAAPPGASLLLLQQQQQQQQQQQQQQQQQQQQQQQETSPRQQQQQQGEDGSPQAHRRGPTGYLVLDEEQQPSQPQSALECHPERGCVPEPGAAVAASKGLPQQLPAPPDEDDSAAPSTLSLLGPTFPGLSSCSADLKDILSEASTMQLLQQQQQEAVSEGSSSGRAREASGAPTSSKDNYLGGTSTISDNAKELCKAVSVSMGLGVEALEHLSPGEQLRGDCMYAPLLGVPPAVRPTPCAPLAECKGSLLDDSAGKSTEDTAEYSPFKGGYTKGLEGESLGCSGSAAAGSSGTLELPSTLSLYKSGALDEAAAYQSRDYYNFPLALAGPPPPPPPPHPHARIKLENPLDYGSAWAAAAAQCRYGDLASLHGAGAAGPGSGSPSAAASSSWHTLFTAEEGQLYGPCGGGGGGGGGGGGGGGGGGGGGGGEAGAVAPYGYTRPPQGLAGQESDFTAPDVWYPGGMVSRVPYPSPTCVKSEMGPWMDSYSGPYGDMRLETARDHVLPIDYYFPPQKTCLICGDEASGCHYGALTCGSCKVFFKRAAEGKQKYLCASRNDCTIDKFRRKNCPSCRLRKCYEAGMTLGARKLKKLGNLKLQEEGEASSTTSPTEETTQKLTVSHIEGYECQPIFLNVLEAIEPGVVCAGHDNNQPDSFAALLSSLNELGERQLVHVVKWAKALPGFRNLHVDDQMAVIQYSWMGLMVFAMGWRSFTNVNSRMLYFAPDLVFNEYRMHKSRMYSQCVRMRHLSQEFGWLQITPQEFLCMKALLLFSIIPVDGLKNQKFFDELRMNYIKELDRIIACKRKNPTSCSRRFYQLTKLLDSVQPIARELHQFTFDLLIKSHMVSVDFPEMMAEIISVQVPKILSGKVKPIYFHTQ
In words: Inhibition of androgen receptor in human VCaP cells expressing GRE-2-TATA-Luc co-expressing firefly luciferase incubated for 24 hrs in presence of DHT by luciferase reporter gene assay. It is filed as cell-based. In general terms: A reporter such as luciferase makes a cellular process visible.

The structures appear in SMILES notation.

The IC50 is the midpoint of a concentration-inhibition curve. As to `CSc1ccc(C(N)=O)cc1-c1ccc2cnccc2c1`, the IC50 turned out to be 0.8 µM.

Values taken from ChEMBL document CHEMBL5370692, “Synthesis and Evaluation of Small Molecule Inhibitors of the Androgen Receptor N-Terminal Domain” (ACS Med Chem Lett, 2023).
